According to patent US11667638B2, “4-substitued cytisine analogues” (The University of Bristol, priority 2016, dated 2023):

Tests used:
α3β4 nAChRs = α3β4 nAChRs (Homo sapiens (Human), UniProt P30926+P32297); test: Maximal gating efficacy on α3β4 nAChRs in Xenopus oocytes, two electrode voltage clamp; assay type: cell-based; conditions: maximal current relative to 1 mM ACh
Description: (§1) Compounds of the invention were tested for effects on the function of human α4β2, α3β4 and α7 nicotinic acetylcholine receptors (nAChRs) expressed heterologously in Xenopus oocytes. […] Expression in oocytes was obtained as follows: pCI (Promega, UK) plasmid containing human α4, β2, β4 or α7 complementary DNA were injected as previously described (Moroni et al., 2006). To express (α4)3(β2)2 nACh receptors, a mixture of 10α4:1β2 cDNAs was injected into the nucleus of oocytes, whereas for (α4)2(β2)3 receptors the cDNA ratio injected was 1α4:10β2.
(§2) Functional studies: Recordings were performed manually using a Geneclamp amplifier (Molecular Devices, USA) or using an automated HiClamp system. In both cases the oocytes were impaled with two electrodes filled with 3 M KCl and the cells were held at −60 mV throughout the experiments.
(§3) Oocyte isolation and two-electrode voltage-clamp recordings on oocytes were carried out as previously described (Moroni et al., 2006; Carbone et al., 2009). […] A minimum interval of 5 min was allowed between agonist applications to ensure reproducible recordings. Oocytes were exposed to increasing concentrations of the compounds until no further increases in the response amplitude were obtained. This concentration was taken as the concentration that causes maximal responses on the receptors tested. The data summarised in Tables 1-4 were obtained from at least 5 experiments carried out on oocytes obtained from at least three different donors.
Maximal gating efficacy of the compounds on α3β4 nAChRs: The concentration of the compounds causing maximal activation of α3β4 nAChRs expressed heterologously in Xenopus oocytes was determined using two electrode voltage clamping.

α4β2 nAChR = α4β2 nAChR (Homo sapiens (Human), UniProt P17787+P43681); assay type: binding; conditions: for Ratio α3β4/α4β2: ratio of Ki values
α4β2 nAChR, sequence (P43681 29-627 limits assumed): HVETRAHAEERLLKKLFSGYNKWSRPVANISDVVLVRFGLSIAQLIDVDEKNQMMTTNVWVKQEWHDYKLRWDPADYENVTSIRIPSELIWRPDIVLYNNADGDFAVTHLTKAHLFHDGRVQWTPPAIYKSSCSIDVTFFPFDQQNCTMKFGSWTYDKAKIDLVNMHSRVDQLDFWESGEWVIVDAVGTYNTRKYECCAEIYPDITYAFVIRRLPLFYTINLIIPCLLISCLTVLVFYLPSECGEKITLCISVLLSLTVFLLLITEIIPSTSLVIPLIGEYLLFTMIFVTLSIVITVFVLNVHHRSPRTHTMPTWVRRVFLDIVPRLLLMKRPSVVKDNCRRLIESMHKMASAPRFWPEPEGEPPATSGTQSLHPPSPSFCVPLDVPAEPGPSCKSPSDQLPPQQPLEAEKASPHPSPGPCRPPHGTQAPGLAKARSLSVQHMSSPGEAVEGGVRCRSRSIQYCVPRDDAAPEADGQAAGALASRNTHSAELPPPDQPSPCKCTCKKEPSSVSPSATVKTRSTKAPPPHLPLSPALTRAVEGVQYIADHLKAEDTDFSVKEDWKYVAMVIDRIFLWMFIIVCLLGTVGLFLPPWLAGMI
α4β2 nAChR, sequence (P17787 26-502 limits assumed): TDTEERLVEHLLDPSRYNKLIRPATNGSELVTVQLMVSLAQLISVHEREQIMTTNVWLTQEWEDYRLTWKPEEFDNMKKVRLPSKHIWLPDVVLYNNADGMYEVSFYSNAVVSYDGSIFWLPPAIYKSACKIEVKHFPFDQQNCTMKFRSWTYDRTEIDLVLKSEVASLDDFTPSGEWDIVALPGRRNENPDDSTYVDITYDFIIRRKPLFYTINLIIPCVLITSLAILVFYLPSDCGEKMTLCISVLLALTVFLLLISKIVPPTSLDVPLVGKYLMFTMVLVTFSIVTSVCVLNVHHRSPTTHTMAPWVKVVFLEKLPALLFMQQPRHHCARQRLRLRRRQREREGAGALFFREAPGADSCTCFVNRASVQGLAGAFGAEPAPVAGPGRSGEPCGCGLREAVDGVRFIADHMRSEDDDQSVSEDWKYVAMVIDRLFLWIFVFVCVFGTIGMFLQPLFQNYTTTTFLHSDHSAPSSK
Description: (§4) HEK 293 cells were grown in Dulbecco's modified Eagle medium supplemented with 10% fetal bovine serum, 1% L-Glutamine, 100 units/ml penicillin G, and 100 μg/streptomycin in a humidified atmosphere containing 10% CO2. The cDNAs encoding α3 and β4 or α4 and β2 (were transfected into the HEK 293 cells at 30% confluency). The cell transfections were carried out in 100 mm Petri dishes using 30 μL of JetPEI™ (Polypus, France) (1 mg/ml, pH 7.2) and 3 μg of each cDNA. After 24 h transfection, the cells were collected, washed with PBS by centrifugation, and used for binding analysis.
(§5) [^3H]-epibatidine saturation binding experiments to HEK transfected α3β4 or α4β2 receptors were performed by means of overnight incubation at 4° C. at concentrations ranging from 0.005 to 1 nM in a buffer containing 50 mM Tris-HCl, pH 7, 150 mM NaCl, 5 mM KCl, 1 mM MgCl2, 2.5 mM CaCl2 and 2 mg/ml BSA, in the presence (aspecific binding) or absence (total binding) of 100 nM cold epibatidine. Specific ligand binding was defined as total binding minus the binding in the presence of 100 nM cold epibatidine.
(§6) After incubation, the membranes of HEK cells transfected with α4β2* or α3β4 subtypes were washed by filtration on GFC filters with ice-cold PBS. The GFC filters were pre-soaked in polyethylenimine and filtered through an harvester apparatus. [^3H]-epibatidine binding was determined by means of liquid scintillation counting in a beta counter.
(§7) The ligand binding data were analyzed by means of nonlinear regression using Prism version 5 (GraphPad Software, Inc., La Jolla, Calif.). The Ki values were calculated from the experimental IC50 values using the Cheng-Prusoff equation for a single population of competitive sites: Ki=IC50/[1+(L/Kd)], where L is the concentration of radioligand used in each experiment and the Kd values were determined by saturation binding experiment. All of the assays were performed in duplicate and repeated at least two-three times.

α3β4 nAChR = α3β4 nAChR (Homo sapiens (Human), UniProt P30926+P32297); assay type: binding; conditions: human α3β4 in HEK 293, 0.5 nM [3H]-epibatidine; range printed after the value
α3β4 nAChR, sequence (P32297 32-505 limits assumed): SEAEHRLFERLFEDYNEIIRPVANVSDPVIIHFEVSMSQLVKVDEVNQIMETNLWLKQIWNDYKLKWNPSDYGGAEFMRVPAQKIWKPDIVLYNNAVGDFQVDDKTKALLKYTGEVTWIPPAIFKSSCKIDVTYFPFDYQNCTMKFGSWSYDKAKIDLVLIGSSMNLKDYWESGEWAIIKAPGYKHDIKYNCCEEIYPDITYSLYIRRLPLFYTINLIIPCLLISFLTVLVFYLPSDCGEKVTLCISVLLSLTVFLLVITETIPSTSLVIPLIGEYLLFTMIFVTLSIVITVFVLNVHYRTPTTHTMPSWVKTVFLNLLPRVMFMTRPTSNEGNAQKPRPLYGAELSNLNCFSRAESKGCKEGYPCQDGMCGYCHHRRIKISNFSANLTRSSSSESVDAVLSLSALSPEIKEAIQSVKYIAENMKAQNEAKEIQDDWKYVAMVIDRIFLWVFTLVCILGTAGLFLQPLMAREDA
α3β4 nAChR, sequence (P30926 22-498 limits assumed): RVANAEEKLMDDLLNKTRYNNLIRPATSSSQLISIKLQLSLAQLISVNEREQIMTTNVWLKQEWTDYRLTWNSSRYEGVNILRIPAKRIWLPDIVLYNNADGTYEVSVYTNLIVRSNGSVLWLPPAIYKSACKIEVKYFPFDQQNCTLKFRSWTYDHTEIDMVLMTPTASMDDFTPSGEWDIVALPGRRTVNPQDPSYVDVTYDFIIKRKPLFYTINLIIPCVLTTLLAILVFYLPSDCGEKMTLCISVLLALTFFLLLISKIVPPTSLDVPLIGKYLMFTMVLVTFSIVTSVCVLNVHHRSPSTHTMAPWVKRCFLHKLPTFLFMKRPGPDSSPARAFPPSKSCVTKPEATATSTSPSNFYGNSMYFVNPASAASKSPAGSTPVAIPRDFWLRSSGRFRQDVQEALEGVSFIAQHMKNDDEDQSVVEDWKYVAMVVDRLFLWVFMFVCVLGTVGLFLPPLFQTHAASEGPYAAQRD
Description: as §4, §5, §6, §7

Human α7 = Human α7 (Homo sapiens (Human), UniProt P36544); assay type: binding; conditions: read-out: Human α7 K(i)
Human α7, sequence (P36544 23-502 limits assumed): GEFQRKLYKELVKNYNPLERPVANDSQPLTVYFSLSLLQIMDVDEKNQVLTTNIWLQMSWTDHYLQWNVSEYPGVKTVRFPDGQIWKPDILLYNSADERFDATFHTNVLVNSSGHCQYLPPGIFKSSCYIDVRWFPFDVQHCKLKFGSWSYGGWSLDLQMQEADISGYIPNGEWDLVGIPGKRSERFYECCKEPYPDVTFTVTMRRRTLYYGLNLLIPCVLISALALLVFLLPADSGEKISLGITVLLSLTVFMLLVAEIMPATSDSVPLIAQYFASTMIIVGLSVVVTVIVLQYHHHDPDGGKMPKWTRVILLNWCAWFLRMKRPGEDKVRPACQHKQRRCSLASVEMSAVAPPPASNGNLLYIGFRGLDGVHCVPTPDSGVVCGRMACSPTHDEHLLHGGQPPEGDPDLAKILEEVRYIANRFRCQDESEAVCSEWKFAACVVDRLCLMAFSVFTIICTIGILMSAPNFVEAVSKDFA

Rat α7 = Rat α7 (Rattus norvegicus (Rat), UniProt Q05941); assay type: binding; conditions: range printed after the value
Rat α7, sequence (Q05941 23-502 limits assumed): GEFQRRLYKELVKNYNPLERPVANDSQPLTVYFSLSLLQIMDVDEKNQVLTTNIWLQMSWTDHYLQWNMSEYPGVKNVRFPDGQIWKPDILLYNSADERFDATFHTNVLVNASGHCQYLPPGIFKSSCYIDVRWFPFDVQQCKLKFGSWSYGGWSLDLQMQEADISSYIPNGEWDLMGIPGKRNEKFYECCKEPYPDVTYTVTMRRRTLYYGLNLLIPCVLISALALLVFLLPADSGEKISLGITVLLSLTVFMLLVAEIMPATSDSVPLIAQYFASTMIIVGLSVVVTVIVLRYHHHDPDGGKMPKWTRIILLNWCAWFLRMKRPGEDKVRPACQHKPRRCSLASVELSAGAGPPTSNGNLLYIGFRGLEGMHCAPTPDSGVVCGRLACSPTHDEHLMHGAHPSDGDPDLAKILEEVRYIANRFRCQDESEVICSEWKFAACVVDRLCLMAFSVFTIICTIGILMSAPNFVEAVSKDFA
Description: as §7

(α4)2(β2)3 nAChRs = (α4)2(β2)3 nAChRs (Homo sapiens (Human), UniProt P17787+P43681); test: Maximal gating efficacy on (α4)2(β2)3 nAChRs in Xenopus oocytes, two electrode voltage clamp; assay type: cell-based; conditions: (α4)2(β2)3, high sensitivity receptors; maximal current relative to 1 mM ACh
(α4)2(β2)3 nAChRs, sequence (P43681 29-627): as the sequence (P43681 29-627 limits assumed) above
(α4)2(β2)3 nAChRs, sequence (P17787 26-502): as the sequence (P17787 26-502 limits assumed) above
Description: as §1, §2, §3
Maximal gating efficacy of compounds on (α4)2(β2)3 receptors (high sensitivity receptors): The concentration of the compounds causing maximal activation of the (α4)2(β2)3 nAChRs expressed heterologously in Xenopus oocytes was determined using two electrode voltage clamping.

(α4)3(β2)2 nAChRs = (α4)3(β2)2 nAChRs (Homo sapiens (Human), UniProt P17787+P43681); test: Maximal gating efficacy on (α4)3(β2)2 nAChRs in Xenopus oocytes, two electrode voltage clamp; assay type: cell-based; conditions: (α4)3(β2)2, low sensitivity stoichiometry; maximal current relative to 1 mM ACh
(α4)3(β2)2 nAChRs, sequence (P43681 29-627): as the sequence (P43681 29-627 limits assumed) above
(α4)3(β2)2 nAChRs, sequence (P17787 26-502): as the sequence (P17787 26-502 limits assumed) above
Description: as §1, §2, §3
Maximal gating efficacy of the compounds: The concentration of the compounds of the invention causing maximal activation of the (α4)3(β2)2 nAChRs expressed heterologously in Xenopus oocytes was determined using two electrode voltage clamping.

α7 nAChRs = α7 nAChRs (Homo sapiens (Human), UniProt P36544); assay type: cell-based; conditions: compounds at 100 μM, relative to 1 mM ACh
α7 nAChRs, sequence (P36544 23-502): as the sequence (P36544 23-502 limits assumed) above
Description: as §1, §2, §3

α3β4 nAChRs, sequence (P32297 32-505): as the sequence (P32297 32-505 limits assumed) above
α3β4 nAChRs, sequence (P30926 22-498): as the sequence (P30926 22-498 limits assumed) above

SMILES	Relative efficacy (ACh) (α3β4 nAChRs)	Ki (α4β2 nAChR; human α4β2 in HEK 293, 0.25 nM [3H]-epibatidine, range printed after the value) [nM]	Ratio α3β4/α4β2 (α4β2 nAChR)	Ki (α3β4 nAChR) [nM]	Ki (Human α7) [nM]	Ki (Rat α7) [nM]	Relative efficacy (ACh) ((α4)2(β2)3 nAChRs)	Relative efficacy (ACh) ((α4)3(β2)2 nAChRs)	Relative efficacy (ACh) (α7 nAChRs)
O=c1cccc2n1C[C@@H]1CNC[C@H]2C1 [Cytisine, cytisine]	0.54 ± 0.01	1.27	81.1	103	691	662	0.02 ± 0.001	0.19 ± 0.07	–
O=c1cc(Br)cc2n1CC1CNC[C@@H]2C1 (single isomer, unassigned; (-)) [Compound 62, (−)4-Bromocytisine]	0.184 ± 0.046	–	303.4	–	–	–	0.009 ± 0.0001	0.057 ± 0.007	0.28 ± 0.01
CCc1cc2n(c(=O)c1)CC1CNC[C@@H]2C1.Cl (single isomer, unassigned; (-)) [Compound 118, (−)4-Ethylcytisine]	0.086 ± 0.106	–	1901.3	–	–	–	0.062 ± 0.025	0.036 ± 0.055	0.0057 ± 0.0028
COc1cc2n(c(=O)c1)CC1CNC[C@@H]2C1 (single isomer, unassigned; (-)) [Compound 69, (−)4-Methoxycytisine]	0.044 ± 0.059	–	206.1	–	–	–	0.009 ± 0.0008	0.071 ± 0.009	0.061 ± 0.09
C#Cc1cc2n(c(=O)c1)CC1CNC[C@@H]2C1.Cl (single isomer, unassigned; (-)) [Compound 127, (−)4-(acetylenyl)cytisine]	0.165 ± 0.064	–	710.5	–	–	–	0.009 ± 0.0009	0.071 ± 0.009	0.17 ± 0.03
O=c1cc(Cl)cc2n1CC1CNC[C@@H]2C1 (single isomer, unassigned; (-)) [Compound 60, (−)4-Chlorocytisine]	0.133 ± 0.017	–	328.6	–	–	–	0.01 ± 0.007	0.110 ± 0.08	0.38 ± 0.09
Cl.O=c1cc(CO)cc2n1CC1CNC[C@@H]2C1 (single isomer, unassigned; (-)) [Compound 122, (−)4-(Hydroxymethyl)cytisine]	0.015 ± 0.020	–	73.0	–	–	–	0.025 ± 0.000	0.058 ± 0.057	0.0067 ± 0.0015
O=c1cc(-c2ccncc2)cc2n1CC1CNC[C@@H]2C1 (single isomer, unassigned; (-)) [Compound 103, (−)4-(4-Pyridinyl)cytisine]	0.016 ± 0.010	–	859.6	–	–	–	0.0067 ± 0.0006	0.023 ± 0.006	0.07 ± 0.009
Cl.O=c1cc(-c2c(F)c(F)c(F)c(F)c2F)cc2n1CC1CNC[C@@H]2C1 (single isomer, unassigned; (-)) [Compound 75, (−)4-(Perfluorophenyl)cytisine]	0.120 ± 0.039	–	8.1	–	–	–	0.050 ± 0.071	0.011 ± 0.010	0.0007 ± 0.0006
Cc1cc2n(c(=O)c1)CC1CNC[C@@H]2C1.Cl (single isomer, unassigned; (-)) [Compound 110, (−)4-Methylcytisine]	0.0708 ± 0.059	–	864.3	–	–	–	0.041 ± 0.004	0.014 ± 0.007	0.0017 ± 0.0024
O=c1cc(-c2ccccn2)cc2n1CC1CNC[C@@H]2C1 (single isomer, unassigned; (-)) [Compound 101, (−)4-(2-Pyridinyl)cytisine]	0.066 ± 0.056	–	1575.0	–	–	–	0.0001 ± 0.00008	0.009 ± 0.008	0.16 ± 0.03
